In general, IC50 refers to the point on the concentration scale where inhibition reaches its midpoint.

Experiment [1] deals with T1, Mer (Homo sapiens, UniProt Q12866).
T1 construct: host or cells: 293A cells (Thermo Fisher #R70507)
T1 sequence (Q12866 21-999): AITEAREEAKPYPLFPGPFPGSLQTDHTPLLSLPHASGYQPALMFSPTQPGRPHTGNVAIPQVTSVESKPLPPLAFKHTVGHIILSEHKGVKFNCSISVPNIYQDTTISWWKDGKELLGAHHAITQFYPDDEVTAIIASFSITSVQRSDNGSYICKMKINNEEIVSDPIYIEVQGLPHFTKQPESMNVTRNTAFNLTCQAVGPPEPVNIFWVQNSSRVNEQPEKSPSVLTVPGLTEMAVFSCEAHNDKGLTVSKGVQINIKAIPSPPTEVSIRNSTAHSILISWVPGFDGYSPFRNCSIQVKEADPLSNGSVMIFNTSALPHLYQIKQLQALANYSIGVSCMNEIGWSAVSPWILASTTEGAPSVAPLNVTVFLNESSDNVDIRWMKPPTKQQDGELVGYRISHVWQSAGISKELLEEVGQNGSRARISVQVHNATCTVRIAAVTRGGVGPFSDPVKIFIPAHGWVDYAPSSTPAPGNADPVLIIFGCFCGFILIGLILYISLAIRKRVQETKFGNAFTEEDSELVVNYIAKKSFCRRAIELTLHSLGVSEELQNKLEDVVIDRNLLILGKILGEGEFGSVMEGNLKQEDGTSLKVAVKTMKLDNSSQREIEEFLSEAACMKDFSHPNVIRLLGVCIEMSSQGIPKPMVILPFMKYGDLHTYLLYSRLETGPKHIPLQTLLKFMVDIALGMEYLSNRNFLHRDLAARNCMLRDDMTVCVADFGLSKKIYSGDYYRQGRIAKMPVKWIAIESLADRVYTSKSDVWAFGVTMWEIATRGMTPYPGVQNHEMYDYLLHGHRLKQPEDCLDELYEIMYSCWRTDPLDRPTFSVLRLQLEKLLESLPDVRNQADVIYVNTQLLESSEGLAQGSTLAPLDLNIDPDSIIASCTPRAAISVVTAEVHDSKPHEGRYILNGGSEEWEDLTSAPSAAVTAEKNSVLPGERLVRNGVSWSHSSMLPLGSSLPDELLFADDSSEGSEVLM
As to the kind of experiment: Mer autophosphorylation ELISA in transient transfected 293A cells. The format is cell-based. The settings on record: cellular activity; MERTK-transfected 293A cells, phospho-Mer ELISA. In a few lines:
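293A cells transiently transfected with human MERTK DNA, then treated 1 h with 8-point compound dilutions in serum-free medium (0.3% DMSO). Phospho-Mer in lysates quantified by sandwich ELISA against phospho-Mer standard; normalised to DMSO (100%) and reference inhibitor (0%), IC50 from 4-parameter logistic fit.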

The target of experiment [2] is Met (Homo sapiens, UniProt P08581). The experiment is described as follows: Human Met kinase assay (33P-phosphoryl transfer radiometric, KinaseProfiler). Further details: Human Met (residues R974-S1390 with A1209G and V1290L, 3.4 nM); purchased Eurofins Pharma Discovery Services UK Limited (KinaseProfiler service). As to conditions: biochemical activity; 10 μM ATP; read-out: c-Met IC50.
Met, sequence (P08581 974-1390): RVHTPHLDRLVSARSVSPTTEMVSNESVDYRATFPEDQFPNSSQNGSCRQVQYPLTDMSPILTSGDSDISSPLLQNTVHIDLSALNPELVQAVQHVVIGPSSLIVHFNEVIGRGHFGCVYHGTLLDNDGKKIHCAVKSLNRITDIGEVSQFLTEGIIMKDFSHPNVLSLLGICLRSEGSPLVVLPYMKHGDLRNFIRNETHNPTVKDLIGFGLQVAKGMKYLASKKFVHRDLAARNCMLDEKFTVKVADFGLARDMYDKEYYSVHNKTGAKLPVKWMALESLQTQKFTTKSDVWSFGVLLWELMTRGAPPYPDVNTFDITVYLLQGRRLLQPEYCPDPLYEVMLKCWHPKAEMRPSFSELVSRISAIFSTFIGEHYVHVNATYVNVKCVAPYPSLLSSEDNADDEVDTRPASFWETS

Take `Cn1cc(-c2ccc3c(Oc4ccc(NC(=O)C5(C(=O)Nc6ccc(F)cc6)CC5)cc4)ccnc3c2)cn1` [Compound 11, 1-N′-(4-Fluorophenyl)-1-N-[4-[7-(1-methylpyrazol-4-yl)quinolin-4-yl]oxyphenyl]cyclopropane-1,1-dicarboxamide]: the IC50 in experiment [1] and in experiment [2] was not above 10 nM in each case.

For `CNC(=O)c1cc2c(Oc3ccc(NC(=O)C4(C(=O)Nc5ccc(F)cc5)CC4)cc3)ccnc2cc1-c1cnn(C)c1` [Compound 77, 1-N′-(4-Fluorophenyl)-1-N-[4-[6-(methylcarbamoyl)-7-(1-methylpyrazol-4-yl)quinolin-4-yl]oxyphenyl]cyclopropane-1,1-dicarboxamide], the values for the IC50 in experiment [1] and in experiment [2] were 10 to 100 nM and not above 10 nM, respectively.

Regarding `Cn1cc(-c2ccc3c(Oc4ccc(NC(=O)C5(C(=O)N6CCc7cc(F)ccc76)CC5)cc4)ccnc3c2)cn1` [Compound 81, 1-(5-Fluoro-2,3-dihydroindole-1-carbonyl)-N-[4-[7-(1-methylpyrazol-4-yl)quinolin-4-yl]oxyphenyl]cyclopropane-1-carboxamide], the IC50 in experiment [1] was 100 to 300 nM; in experiment [2], not above 10 nM.

As to `CCn1cc(-c2ccc3c(Oc4ccc(NC(=O)C5(C(=O)Nc6ccc(F)cc6)CC5)cc4)ccnc3c2)cn1` [Compound 20, 1-N-[4-[7-(1-Ethylpyrazol-4-yl)quinolin-4-yl]oxyphenyl]-1-N′-(4-fluorophenyl)cyclopropane-1,1-dicarboxamide], the IC50 in experiment [1] and in experiment [2] was not above 10 nM in each case.

For the compound `Cc1cc(F)cc(C)c1NC(=O)C1(C(=O)Nc2ccc(Oc3ccnc4cc(-c5cnn(C)c5)ccc34)cc2)CC1` [Compound 82, 1-N′-(4-Fluoro-2,6-dimethylphenyl)-1-N-[4-[7-(1-methylpyrazol-4-yl)quinolin-4-yl]oxyphenyl]cyclopropane-1,1-dicarboxamide], the IC50 in experiment [1] and in experiment [2] was 10 to 100 nM in each case.

Turning to `O=C(Nc1ccc(F)cc1)C1(C(=O)Nc2ccc(Oc3ccnc4cc(-c5cnn(C6CCNCC6)c5)ccc34)cc2)CC1` [Compound 60, 1-N′-(4-Fluorophenyl)-1-N-[4-[7-(1-piperidin-4-ylpyrazol-4-yl)quinolin-4-yl]oxyphenyl]cyclopropane-1,1-dicarboxamide], the IC50 in experiment [1] is 10 to 100 nM; in experiment [2] it was not above 10 nM.

As to `CN1CCC(n2cc(-c3ccc4c(Oc5ccc(NC(=O)C6(C(=O)Nc7ccc(F)cc7)CC6)cc5)ccnc4c3)cn2)CC1` [Compound 61, 1-N′-(4-Fluorophenyl)-1-N-[4-[7-[1-(1-methylpiperidin-4-yl)pyrazol-4-yl]quinolin-4-yl]oxyphenyl]cyclopropane-1,1-dicarboxamide], the half-maximal inhibitory concentration (IC50) in experiment [1] and in experiment [2] was not above 10 nM each time.

Turning to `O=C(Nc1ccc(F)cc1)C1(C(=O)Nc2ccc(Oc3ccnc4cc(-c5cnn(C6CC6)c5)ccc34)cc2)CC1` [Compound 22, 1-N-[4-[7-(1-Cyclopropylpyrazol-4-yl)quinolin-4-yl]oxyphenyl]-1-N′-(4-fluorophenyl)cyclopropane-1,1-dicarboxamide], the IC50 in experiment [1] and in experiment [2] was not above 10 nM each time.

For the compound `O=C(Nc1ccc(F)cc1)C1(C(=O)Nc2ccc(Oc3ccnc4cc(-c5cnn(C(F)F)c5)ccc34)cc2)CC1` [Compound 13, 1-N-[4-[7-[1-(Difluoromethyl)pyrazol-4-yl]quinolin-4-yl]oxyphenyl]-1-N′-(4-fluorophenyl)cyclopropane-1,1-dicarboxamide], the IC50 in experiment [1] was 10 to 100 nM; in experiment [2], not above 10 nM.

For the origin of these results see patent US12503438B2, “Compounds for the treatment of kinase-dependent disorders” (Exelixis, Inc., priority 2019, dated 2025).
